The record followed here is patent US4962109A, “Insecticidally and acaricidally active pyrimidine esters and intermediates therefor” (Imperial Chemical Industries PLC, priority 1985, dated 1990).

Common to all, as to type: in vivo
Experiment [1] has as its system Tetranychus urticae (spider mites - adult). As to the kind of experiment: Contact test on spider mites - adult (TUa), French bean leaf, mortality. The settings on record: 72 h, contact, 3 days, read-out: TUa grading of mortality. The protocol:
(§1) The activity of the Product was determined using a variety of insect pests. The Product was used in the form of liquid preparations containing 500, 250 or 100 parts per million (ppm) by weight of the Product. The preparations were made by dissolving the Product in acetone and diluting the solutions with water containing 0.01% by weight of a wetting agent sold under the trade name "LISSAPOL" NX until the liquid preparations contained the required concentration of the Product. "Lissapol" is a Registered Trade Mark.
(§2) The test procedure adopted with regard to each pest was basically the same and comprised supporting a number of the pests on a medium which was usually a host plant or a foodstuff on which the pests feed, and treating either or both the pests and the medium with the preparations. The mortality of the pests was then assessed at periods usually varying from one to three days after the treatment.
(§3) The results of the tests are given in Table III for each of the Products, at the rate in parts per million given in the second column as a grading of mortality designated as A, B or C wherein A indicates 80-100% mortality or knockdown, B indicates 50-79% mortality or knockdown and C indicates less than 50% mortality or knockdown.

Experiment [2] concerns Tetranychus urticae (spider mites - ova). As to the kind of experiment: Contact test on spider mites - ova (TUe), French bean leaf, mortality. Particulars: 144 h, contact, 6 days, read-out: TUe grading of mortality. The protocol:
as §1, §2, §3

In experiment [3] the test system is Myzus persicae (aphids). As to the kind of experiment: Contact test on aphids (MP), Chinese Cabbage leaf, mortality. The settings on record: 72 h, contact, 3 days, read-out: MP grading of mortality. The method, then: as §1, §2, §3
Experiment [4] concerns Nephotettix cincticeps (green leaf hopper - nymphs). As to the kind of experiment: Contact test on green leaf hopper nymphs (NC), Rice plant, mortality. The settings on record: 48 h, 500 ppm, contact, 2 days, read-out: NC grading of mortality. The method, then: as §1, §2, §3
NC Nephotettix cincticeps

The test system of experiment [5] is Musca domestica (houseflies - adults). As to the kind of experiment: Knockdown test on houseflies - adults (MD/KD), Cotton wool/sugar. The settings on record: 500 ppm, 4 hours, read-out: MD/KD grading of knockdown. The method, then:
as §1, §2
In the case of the species Musca domestica (housefly), additional tests to determine the knockdown effect of the compounds were performed. PG,163
as §3

For experiment [6] the test system is unchanged. As to the kind of experiment: Contact test on houseflies - adults (MD), Cotton wool/sugar, mortality. The settings on record: 72 h, 500 ppm, contact, 3 days, read-out: MD grading of mortality. The protocol:
as §1, §2, §3

The test system of experiment [7] is Blattella germanica (cockroach nymphs). As to the kind of experiment: Contact test on cockroach nymphs (BG/C), Plastic pot, mortality. Particulars: 48 h, contact, 2 days, read-out: BG/C grading of mortality. The protocol: as §1, §2, §3
BG/C Blattella germanica

For experiment [8], the system named is Heliothis virescens (tobacco budworm - larvae). As to the kind of experiment: Residual test on tobacco budworm larvae (HV), Cotton leaf, mortality. Particulars: 48 h, read-out: HV grading of mortality. The protocol: as §1, §2, §3
(tobacco budworm - larvae)

For experiment [9], the system named is Spodoptera exigua (lesser army worm - larvae). As to the kind of experiment: Residual test on lesser army worm larvae (SP), Cotton leaf, mortality. Particulars: 48 h, residual, 2 days, read-out: SP grading of mortality. The protocol: as §1, §2, §3
(lesser army worm - larvae)

Experiment [10] relates to Diabrotica balteata (rootworm larvae). As to the kind of experiment: Residual test on rootworm larvae (DB), Filter paper/maize seed, mortality. The settings on record: 48 h, residual, 2 days, read-out: DB grading of mortality. The method, then:
as §1, §2, §3

Bounds are passed on as bounds.

For `COCc1c(F)c(F)c(COC(=O)C(c2cnc(-c3ccccc3Cl)nc2)C(C)(C)C)c(F)c1F` (racemic) [Compound 208, 2,3,5,6-tetrafluorbenzyl-4-(methoxymethyl)-benzyl (RS)-2-[2-(2-chlorophenyl)pyrimidin-5-yl]-3,3-dimethylbutanoate], the mortality at 500 ppm in experiment [1] was 80 to 100%; in [2], less than 50%; in experiment [3], 80 to 100%; in experiment [4] it was 80 to 100%; in experiment [6] it was less than 50%; in experiment [7], less than 50%. The mortality at 500 ppm in [8], in experiment [9] and in experiment [10] was less than 50% in each case. Also, the pest or weed control at 500 ppm in [5] is less than 50%.

With `CC(C)c1ncc(C(C(=O)OCc2ccc(F)c(Oc3ccccc3)c2)C(C)(C)C)cn1` (racemic) [Compound 197, 4-fluoro-3-phenoxybenzyl (RS)-2-[2-(1-methylethyl)pyrimidin-5-yl]-3,3-dimethylbutanoate], the mortality at 500 ppm in [1] was 80 to 100%; in [2], 80 to 100%; in [3] it was 80 to 100%; in [4] it was 80 to 100%; in experiment [6] it was less than 50%; in [7], less than 50%. Also, the mortality at 500 ppm in experiment [8], in [9] and in experiment [10] was 80 to 100% in each case. The pest or weed control at 500 ppm in experiment [5] is 80 to 100%.

On to `C[C@@H](OC(=O)[C@@H](c1cnc(C2(C)CC2)nc1)C(C)(C)C)c1cccc(Oc2ccccc2)n1` (racemic) [Compound 203, (RS)-1-(6-phenoxypyrid-2-yl)ethyl (RS)-2-[2-(1-methylcyclopropyl)pyrimidin-5-yl]-3,3-dimethylbutanoate], for which the mortality at 500 ppm lay in the range of 80 to 100% in [1]; 50 to 79% in [2]; 80 to 100% in experiment [3]; 80 to 100% in [4]; 80 to 100% in experiment [6]; 50 to 79% in experiment [7]. The mortality at 500 ppm in experiment [8] is 80 to 100%; in experiment [9], 80 to 100%; in experiment [10], less than 50%. The pest or weed control at 500 ppm in experiment [5] was in the range of 80 to 100%.

As to `CC(C)(C)c1ncc(C(C(=O)OCc2c(F)c(F)c(COCc3ccc(Cl)cc3)c(F)c2F)C(C)(C)C)cn1` (racemic) [Compound 163, 4-[(4-chlorobenzyloxy)methyl]-2,3,5,6-tetrafluorobenyl (RS)-2-[2-(1,1-dimethylethyl)pyrimidin-5-yl]-3,3-dimethylbutanoate], the mortality at 500 ppm in experiment [1] was 80 to 100%; in experiment [2] it was less than 50%; in [3] it was less than 50%; in [4], less than 50%; in [6], less than 50%; in [7], less than 50%. The values for the mortality at 500 ppm in experiment [8], in [9] and in experiment [10] were less than 50%, 50 to 79% and less than 50%, respectively. For the same molecule, the pest or weed control at 500 ppm in [5] was less than 50%.

For the molecule `CC(C)(C)c1ncc([C@H](C(=O)O[C@H](c2cccc(Oc3ccccc3)n2)C(F)(F)F)C(C)(C)C)cn1` (racemic) [Compound 32, (RS)-1-(6-phenoxypyrid-2-yl)-2,2,2-trifluoroethyl (RS)-2-[2-(1,1-dimethylethyl)pyrimidin-5-yl]-3,3-dimethylbutanoate], the mortality at 500 ppm was 80 to 100% in [1]; 50 to 79% in experiment [2]; 80 to 100% in [3]; 80 to 100% in [4]; 80 to 100% in [6]; less than 50% in [7]. Besides, the mortality at 500 ppm in [8], in experiment [9] and in experiment [10] was 80 to 100% throughout. Also, in experiment [5], the pest or weed control at 500 ppm fell in the range of 80 to 100%.

For `C#CCSCc1c(F)c(F)c(COC(=O)C(c2cnc(C(C)(C)C)nc2)C(C)(C)C)c(F)c1F` (racemic) [Compound 220], the mortality at 500 ppm in experiment [1] is 80 to 100%; in experiment [2] it was less than 50%; in [3], 80 to 100%; in experiment [4], 80 to 100%; in experiment [6] it was 80 to 100%; in [7], less than 50%. Moreover, the mortality at 500 ppm is less than 50% in [8], 50 to 79% in [9] and 50 to 79% in [10]. For the same molecule, the pest or weed control at 500 ppm in experiment [5] fell in the range of 80 to 100%.

As to `CCOCc1c(F)c(F)c(COC(=O)C(c2cnc(C(C)(C)C)nc2)C(C)(C)C)c(OCC)c1F` (racemic) [Compound 188, 2,3,5-trifluoro-6-ethoxy-4-(ethoxymethyl)benzyl (RS)-2-[2-(1,1-dimethylethyl)pyrimidin-5-yl]-3,3-dimethylbutanoate], the mortality at 500 ppm is 80 to 100% in experiment [1]; less than 50% in experiment [2]; 80 to 100% in [3]; 50 to 79% in experiment [4]; less than 50% in experiment [6]; less than 50% in experiment [7]. The mortality at 500 ppm in experiment [8] was 50 to 79%; in experiment [9] it was 80 to 100%; in experiment [10] it was less than 50%. Further, the pest or weed control at 500 ppm in [5] was less than 50%.

For the molecule `COCc1c(F)c(F)c(COC(=O)C(c2cnc(C(C)(C)C)nc2)C(F)(F)F)c(F)c1F` (racemic) [Compound 213, 4-(methoxymethyl)-2,3,5,6-tetrafluorobenzyl (RS)-2-[2-(1,1-dimethylethyl)pyrimidin-5-yl]-3,3,3-trifluoropropionate], the mortality at 500 ppm in experiment [1] is 80 to 100%; in [2], less than 50%; in [3] it was 50 to 79%; in [4] it was less than 50%; in [6], less than 50%; in experiment [7], 50 to 79%. In addition, the mortality at 500 ppm in experiment [8], in experiment [9] and in experiment [10] was less than 50% throughout. Further, the pest or weed control at 500 ppm in [5] lay in the range of 80 to 100%.

Consider `CCC(C)(C)C(C(=O)OCc1c(F)c(F)c(COC)c(F)c1F)c1cnc(C(C)(C)C)nc1` (racemic) [Compound 210, 4-methoxymethyl-2,3,5,6-tetrafluorobenzyl (RS)-2-[2-(1,1-dimethylethyl)-pyrimidin-5-yl]-3,3-dimethylpentanoate], for which the mortality at 100 ppm was 80 to 100% in [1] (100 ppm); 80 to 100% in [2] (100 ppm); less than 50% in [3] (100 ppm); less than 50% in experiment [7] (100 ppm); less than 50% in experiment [8]; less than 50% in experiment [9] (100 ppm). For the same molecule, the mortality at 100 ppm in experiment [10] (100 ppm) was less than 50%.

For the molecule `CC(C)(C)c1ncc(C(C(=O)OCN2C(=O)C3=C(CCCC3)C2=O)C(C)(C)C)cn1` (racemic) [Compound 6, N-3,4,5,6-tetrahydrophthalimidomethyl (RS)-2-[2-(1,1-dimethylethyl)pyrimidin-5-yl]-3,3-dimethylbutanoate], the mortality at 500 ppm is 80 to 100% in experiment [1]; less than 50% in [3]; less than 50% in experiment [4]; less than 50% in [6]; less than 50% in experiment [7]; less than 50% in experiment [8]. Also, the mortality at 500 ppm was less than 50% in experiment [9] and 50 to 79% in experiment [10]. The pest or weed control at 500 ppm in experiment [5] was less than 50%.

As for `CC(C)(C)c1ncc(C(C(=O)OCc2c(F)c(F)c(CCl)c(F)c2F)C(C)(C)C)cn1` (racemic) [Compound 167, 4-chloromethyl-2,3,5,6-tetrafluorobenzyl (RS)-2-[2-(1,1-dimethylethyl)pyrimidin-5-yl]-3,3-dimethylbutanoate], the mortality at 500 ppm was 80 to 100% in experiment [1]; 80 to 100% in experiment [2]; 80 to 100% in experiment [3]; less than 50% in [6]; less than 50% in experiment [7]; 80 to 100% in [8]. For the same molecule, the mortality at 500 ppm in [9] and in experiment [10] was 80 to 100% throughout. Further, in [5], the pest or weed control at 500 ppm was less than 50%.
